We go through 16 compounds from patent US6222035A, “[1,2,4] triazolo [1,5-C] pyrimidine derivatives” (Kyowa Hakko Kogyo Co., Ltd., priority 1997, dated 2001).

In test [1] the test system is CGS 21680-induced catalepsy in mice. In words: Activity on CGS 21680-induced Catalepsy. In kind it is in vivo, mouse (male ddY). As to conditions: 10 mg/kg oral; for Total score (catalepsy): 10 animals, maximum 50 points, control 48; for Number of Animals showing remission: catalepsy score 4 points or less in 10 cases; for inhibition in vivo at 10 mg/kg: Mus musculus, CGS 21680-induced catalepsy, read-out: Remission ratio (%). How it is done:
Activity on CGS 21680-induced Catalepsy
Parkinson's disease is motor deficit based on the degeneration and cell death of the nigrostriatal dopaminergic neuron. […] [Journal of Neuroscience, 16: 605 (1996)]. Accordingly, it is considered that adenosine A2A receptor agonists positively regulate the output of the striopallidal GABAergic neurons and, as a result, catalepsy is induced by the administration of CGS 21680.
This test was carried out using 10 animals per group of male ddY mice of 5 week age (22 to 25 g in body weight, Japan SLC). CGS 21680 (manufactured by RBI) was dissolved in a physiological saline (manufactured by Otsuka Pharmaceutical), and 10 μg/20 μl of the solution was injected into mouse intracerebro-ventricle. Test compounds were used by suspending them in distilled water containing 0.3% of polyoxyethylene(20)sorbitan monooleate (hereinafter referred to as "Tween 80") (manufactured by Otsuka Pharmaceutical). […] One hour after the administration of the test compound, only forelimbs or only hindlimbs of each animal were laid on a vertically arranged stand made of acryl, having a size of 4.5 cm in height and 1.0 cm in width, to measure catalepsy symptoms. All of the compounds were administered orally in a dose of 10 mg/kg.
The effect was judged by total catalepsy scores of 10 animals in one group (the maximum is 50 points). When the total score was 40 points or less, the activity of drugs was judged positive. The number of animals showing remission of catalepsy was expressed by the number of cases in which the catalepsy score was 4 points or less in 10 cases. The catalepsy remission ratio was expressed as the percentage of the total score in the test compound-administered group to the total score in the control group.

For test [2], the target named is T1, adenosine A2A receptor (Rattus norvegicus, UniProt P30543).
T1 construct: from tissue; host or cells: rat corpus striatum, washed membrane suspension
T1 sequence (P30543 whole entry): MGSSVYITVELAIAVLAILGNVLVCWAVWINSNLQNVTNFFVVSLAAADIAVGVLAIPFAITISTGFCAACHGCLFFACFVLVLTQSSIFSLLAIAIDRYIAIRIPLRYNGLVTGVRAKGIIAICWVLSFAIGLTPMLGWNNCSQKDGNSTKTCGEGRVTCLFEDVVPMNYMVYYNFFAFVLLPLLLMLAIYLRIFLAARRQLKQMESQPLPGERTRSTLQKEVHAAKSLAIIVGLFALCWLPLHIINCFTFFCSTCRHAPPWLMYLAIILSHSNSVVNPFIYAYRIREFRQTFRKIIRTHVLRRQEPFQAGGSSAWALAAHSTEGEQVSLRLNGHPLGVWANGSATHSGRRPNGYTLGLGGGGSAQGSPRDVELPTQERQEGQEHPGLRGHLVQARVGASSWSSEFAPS
In words: Adenosine receptor binding activity (adenosine A2A receptor binding test), 3H-CGS 21680 binding. To be noted: 2 h, read-out: A2A receptor inhibition ratio (%); for inhibition at 0.1 µM: 10^-7 M. As to the method: Adenosine receptor binding activity (adenosine A2A receptor binding test) This test was carried out by slightly modifying the method of Bruns et al. [Molecular Pharmacology, 29: 331 (1986)].
Corpus striatum of a rat was suspended in an ice-cooled 50 mM tris(hydroxymethyl)aminomethane hydrochloride (hereinafter referred to as "Tris-HCl") buffer (pH 7.7) using Polytron Homogenizer (manufactured by Kinematica Co.). The suspension was centrifuged (50,000×g, 10 minutes), and the obtained precipitate was re-suspended in the same amount of 50 mM Tris-HCl buffer. The suspension was centrifuged under the same conditions, and the final precipitate was suspended in 50 mM Tris-HCl [containing 10 mM magnesium chloride and 0.02 unit/mg tissue of adenosine deaminase (manufactured by Sigma Co.)] to give a tissue concentration of 5 mg (wet weight)/ml.
To 1 ml of the tissue suspension thus prepared were added 50 μl of tritium-labeled CGS 21680 {^3 H-2-[p-(2-carboxyethyl)phenethylamino]-5'-N-ethylcarboxamido)adenosine: 40 Ci/mmol; manufactured by New England Nuclear Co.[The Journal of Pharmacology and Experimental Therapeutics, 251: 888 (1989)]} (final concentration:4.0 nM) and 50 μl of a test compound. The resulting mixture was allowed to stand for 120 minutes at 25° C., and then rapidly filtered by suction through a glass fiber filter (GF/C, manufactured by Whatman Co.) The filter was immediately washed three times with […] of an ice-cooled 50 mM Tris-HCl buffer, and transferred to a vial, a scintillator (EX-H , manufactured by Wako Pure Chemical Industries, Ltd.) was added thereto, and the radioactivity on the filter was determined with a liquid scintillation counter (manufactured by Packard Instrument Co.) […]
The inhibition ratio of the test compound against the A2A receptor binding (^3 H-CGS 21680 binding) was calculated by the following equation:
Inhibition ratio (%)={1-(Amount of the binding in the presence of the test compound-Amount of the nonspecific binding)/(Amount of the total binding-Amount of the nonspecific binding)}×100
(Note) Amount of the total binding means the amount of radioactivity of ^3 H-CGS 21680 bound in the absence of the test compound. Amount of the nonspecific binding means the amount of radioactivity of ^3 H-CGS 21680 bound in the presence of 100 μM cyclopentyladenosine (CPA, manufactured by Sigma Co.) Amount of the binding in the presence of the test compound means the amount of radioactivity of ^3 H-CGS 21680 bound in the presence of the test compound at various levels of concentrations.

Where a name gives a salt, the structure may show the parent alone.

As to `CC(O)CN1CCN(c2cc3nc(-c4ccco4)nn3c(N)n2)CC1` (racemic) [Compound 105, (±)-5-Amino-2-(2-furyl)-7-(4-(2-hydroxypropyl)piperazinyl)[1,2,4]triazolo[1,5-c]pyrimidine], in test [1], the “Total score (catalepsy)” value came to 4, the “Number of Animals showing remission” value is on record as 10 and the inhibition in vivo at 10 mg/kg was 92%. For the same compound, the inhibition at 0.1 µM in test [2] stood at 41%.

In the case of `Nc1nc(Oc2ccc(Cl)cc2)cc2nc(-c3ccco3)nn12` [Compound 35, 5-Amino-7-(4-chlorophenoxy)-2-(2-furyl)[1,2,4]triazolo[1,5-c]pyrimidine], in test [1], the “Total score (catalepsy)” value amounted to 15, the “Number of Animals showing remission” value amounted to 8 and the inhibition in vivo at 10 mg/kg came to 66%. In addition, the inhibition at 0.1 µM in test [2] worked out at 82%. For the same compound, in test [2] (10^-8 M), the inhibition at 0.01 µM is 43%.

Turning to `COc1ccc(OC)c(CN2CCN(c3cc4nc(-c5ccco5)nn4c(N)n3)CC2)c1` [Compound 75, 5-Amino-7-((2,5-dimethoxybenzyl)piperazinyl)-2-(2-furyl)[1,2,4]triazolo[1,5-c]pyrimidine], in test [1], the “Total score (catalepsy)” value is 10, the “Number of Animals showing remission” value is on record as 9 and the inhibition in vivo at 10 mg/kg was 76%. Also, the inhibition at 0.1 µM in test [2] came out at 84%.

Take `COc1cc(CN2CCN(c3cc4nc(-c5ccco5)nn4c(N)n3)CC2)cc(OC)c1` [Compound 76, 5-Amino-7-(4-(3,5-dimethoxybenzyl)piperazinyl)-2-(2-furyl)[1,2,4]triazolo[1,5-c]pyrimidine]: in test [1], the “Total score (catalepsy)” value stood at 11, the “Number of Animals showing remission” value came out at 10 and the inhibition in vivo at 10 mg/kg amounted to 76%. The inhibition at 0.1 µM in test [2] worked out at 73%.

Take `COc1cc(CN2CCN(c3cc4nc(-c5ccco5)nn4c(N)n3)CC2)cc(OC)c1OC` [Compound 77, 5-Amino-2-(2-furyl)-7-(4-(3,4,5-trimethoxybenzyl)piperazinyl)[1,2,4]triazolo[1,5-c]pyrimidine]: in test [1], the “Total score (catalepsy)” value worked out at 21, the “Number of Animals showing remission” value is 9 and the inhibition in vivo at 10 mg/kg worked out at 54%. For the same compound, the inhibition at 0.1 µM in test [2] is 77%.

As to `Nc1nc(N2CCN(Cc3ccccc3F)CC2)cc2nc(-c3ccco3)nn12` [Compound 78, 5-Amino-7-(4-(2-fluorobenzyl)piperazinyl)-2-(2-furyl)[1,2,4]triazolo[1,5-c]pyrimidine], in test [1], the “Total score (catalepsy)” value came to 6, the “Number of Animals showing remission” value is 10 and the inhibition in vivo at 10 mg/kg came out at 86%. Besides, the inhibition at 0.1 µM in test [2] came out at 85%.

As for `Nc1nc(N2CCN(Cc3c(Cl)cccc3Cl)CC2)cc2nc(-c3ccco3)nn12` [Compound 80, 5-Amino-7-(4-(2,6-dichlorobenzyl)piperazinyl)-2-(2-furyl)[1,2,4]triazolo[1,5-c]pyrimidine hydrochloride], in test [1], the “Total score (catalepsy)” value is 3, the “Number of Animals showing remission” value is given as 10 and the inhibition in vivo at 10 mg/kg came to 92%. In addition, the inhibition at 0.1 µM in test [2] came out at 93%.

Turning to `Nc1nc(N2CCN(Cc3ccccn3)CC2)cc2nc(-c3ccco3)nn12` [Compound 84, 5-Amino-2-(2-furyl)-7-(4-(2-picolyl)piperazinyl)[1,2,4]triazolo[1,5-c]pyrimidine], in test [1], the “Total score (catalepsy)” value is on record as 9, the “Number of Animals showing remission” value stood at 9 and the inhibition in vivo at 10 mg/kg is 78%. In test [2], the inhibition at 0.1 µM amounted to 63%.

With `COc1ccc(CCCN2CCN(c3cc4nc(-c5ccco5)nn4c(N)n3)CC2)cc1OC` [Compound 86, 5-Amino-7-(4-(3-(3,4-dimethoxyphenyl)propyl)piperazinyl)-2-(2-furyl)[1,2,4]triazolo[1,5-c]pyrimidine], in test [1], the “Total score (catalepsy)” value was 13, the “Number of Animals showing remission” value worked out at 9 and the inhibition in vivo at 10 mg/kg was determined as 72%. The inhibition at 0.1 µM in test [2] amounted to 83%.

As for `Nc1nc(N2CCN(CCCc3cccnc3)CC2)cc2nc(-c3ccco3)nn12` [Compound 87, 5-Amino-2-(2-furyl)-7-(4-(3-(3-pyridyl)propyl)piperazinyl)[1,2,4]triazolo[1,5-c]pyrimidine hydrochloride], in test [1], the “Total score (catalepsy)” value is recorded as 14, the “Number of Animals showing remission” value worked out at 9 and the inhibition in vivo at 10 mg/kg is 68%. The inhibition at 0.1 µM in test [2] was found to be 77%.

Regarding `Nc1nc(N2CCN(CCOc3ccccc3)CC2)cc2nc(-c3ccco3)nn12` [Compound 90, 5-Amino-2-(2-furyl)-7-(4-(2-phenoxyethyl)piperazinyl)[1,2,4]triazolo[1,5-c]pyrimidine hydrochloride], in test [1], the “Total score (catalepsy)” value is on record as 12, the “Number of Animals showing remission” value is 9 and the inhibition in vivo at 10 mg/kg was determined as 80%. In addition, the inhibition at 0.1 µM in test [2] is 82%.

For `Nc1nc(N2CCN(c3ccccn3)CC2)cc2nc(-c3ccco3)nn12` [Compound 93, 5-Amino-2-(2-furyl)-7-(4-(2-pyridyl)piperazinyl)[1,2,4]triazolo[1,5-c]pyrimidine], in test [1], the “Total score (catalepsy)” value was found to be 10, the “Number of Animals showing remission” value amounted to 8 and the inhibition in vivo at 10 mg/kg was found to be 66%. Further, the inhibition at 0.1 µM in test [2] was 36%.

For the compound `CCOCCN1CCN(c2cc3nc(-c4ccco4)nn3c(N)n2)CC1` [Compound 96, 5-Amino-7-(4-(2-ethoxyethyl)piperazinyl)-2-(2-furyl)[1,2,4]triazolo[1,5-c]pyrimidine], in test [1], the “Total score (catalepsy)” value is given as 7, the “Number of Animals showing remission” value amounted to 9 and the inhibition in vivo at 10 mg/kg came out at 86%. Moreover, in test [2], the inhibition at 0.1 µM amounted to 58%.

With `Nc1nc(N2CCN(CCOCc3ccccc3)CC2)cc2nc(-c3ccco3)nn12` [Compound 97, 5-Amino-7-(4-(2-benzyloxyethyl)piperazinyl)-2-(2-furyl)[1,2,4]triazolo[1,5-c]pyrimidine hydrochloride], in test [1], the “Total score (catalepsy)” value is 4, the “Number of Animals showing remission” value amounted to 10 and the inhibition in vivo at 10 mg/kg came to 90%. For the same compound, the inhibition at 0.1 µM in test [2] worked out at 79%.

In the case of `COCCCN1CCN(c2cc3nc(-c4ccco4)nn3c(N)n2)CC1` [Compound 99, 5-Amino-2(2-furyl)-7-(4-(3-methoxypropyl)piperazinyl)[1,2,4]triazolo[1,5-c]pyrimidine], in test [1], the “Total score (catalepsy)” value was 5, the “Number of Animals showing remission” value worked out at 10 and the inhibition in vivo at 10 mg/kg is 90%. Moreover, the inhibition at 0.1 µM in test [2] is 59%.

As to `CCOCCCN1CCN(c2cc3nc(-c4ccco4)nn3c(N)n2)CC1` [Compound 100, 5-Amino-7-(4-(3-ethoxypropyl)piperazinyl)-2-(2-furyl)[1,2,4]triazolo[1,5-c]pyrimidine], in test [1], the “Total score (catalepsy)” value amounted to 4, the “Number of Animals showing remission” value worked out at 10 and the inhibition in vivo at 10 mg/kg amounted to 90%. Besides, the inhibition at 0.1 µM in test [2] worked out at 54%.
